Data as given in article PMC6874179, “Development of Macrocycle Kinase Inhibitors for ALK2 Using Fibrodysplasia Ossificans Progressiva‐Derived Endothelial Cells” (JBMR Plus, 2019).

Columns and labels:
RET = molecular target: T1, RET (Homo sapiens, UniProt P07949); test: Proqinase Kinase profiling; assay type: biochemical; settings: read-out: % inhibition at 100nM
T1 construct: purchased DiscoverX

TXK = molecular target: T2, TXK (Homo sapiens, UniProt P42681); test: Proqinase Kinase profiling; assay type: biochemical; settings: read-out: % inhibition at 100nM
T2 construct: purchased DiscoverX

CSNK1E = molecular target: T3, CSNK1E (Homo sapiens, UniProt P49674); test: Proqinase Kinase profiling; assay type: biochemical; settings: read-out: % inhibition at 100nM
T3 construct: purchased DiscoverX

BRAF = molecular target: T4, BRAF (Homo sapiens, UniProt P15056); test: Proqinase Kinase profiling; assay type: biochemical; settings: read-out: % inhibition at 100nM
T4 construct: purchased DiscoverX

ACVR2A = molecular target: T5, ACVR2A (Homo sapiens, UniProt P27037); test: Proqinase Kinase profiling; assay type: biochemical; settings: read-out: % inhibition at 100nM
T5 construct: T7 phage fusion (or DNA tag for qPCR if made in HEK-293); purchased DiscoverX; host or cells: E. coli (T7 phage) or HEK-293

ACVR1B = molecular target: T6, ACVR1B (Homo sapiens, UniProt P36896); test: Proqinase Kinase profiling; assay type: biochemical; settings: read-out: % inhibition at 100nM
T6 construct: purchased DiscoverX

STK16 = molecular target: T7, STK16 (Homo sapiens, UniProt O75716); test: Proqinase Kinase profiling; assay type: biochemical; settings: read-out: % inhibition at 100nM
T7 construct: purchased DiscoverX

PAK4 = molecular target: T8, PAK4 (Homo sapiens, UniProt O96013); test: Proqinase Kinase profiling; assay type: biochemical; settings: read-out: % inhibition at 100nM
T8 construct: purchased DiscoverX

ABL1_Y253F = molecular target: T9, ABL1_Y253F (Homo sapiens, UniProt P00519, Y253F); test: Proqinase Kinase profiling; assay type: biochemical; settings: read-out: % inhibition at 100nM
T9 construct: purchased DiscoverX

DCLK2 = molecular target: T10, DCLK2 (Homo sapiens, UniProt Q8N568); test: Proqinase Kinase profiling; assay type: biochemical; settings: read-out: % inhibition at 100nM
T10 construct: purchased DiscoverX

ZAK = molecular target: T11, ZAK (Homo sapiens, UniProt Q9NYL2); test: Proqinase Kinase profiling; assay type: biochemical; settings: read-out: % inhibition at 100nM
T11 construct: purchased DiscoverX

INSRR = molecular target: T12, INSRR (Homo sapiens, UniProt P14616); test: Proqinase Kinase profiling; assay type: biochemical; settings: read-out: % inhibition at 100nM
T12 construct: purchased DiscoverX

CSNK2A2 = molecular target: T13, CSNK2A2 (Homo sapiens, UniProt P19784); test: Proqinase Kinase profiling; assay type: biochemical; settings: read-out: % inhibition at 100nM
T13 construct: purchased DiscoverX

CLK4 = molecular target: T14, CLK4 (Homo sapiens, UniProt Q9HAZ1); test: Proqinase Kinase profiling; assay type: biochemical; settings: read-out: % inhibition at 100nM
T14 construct: purchased DiscoverX

WEE1 = molecular target: T15, WEE1 (Homo sapiens, UniProt P30291); test: Proqinase Kinase profiling; assay type: biochemical; settings: read-out: % inhibition at 100nM
T15 construct: purchased DiscoverX

MAPK3 = molecular target: T16, MAPK3 (Homo sapiens, UniProt P27361); test: Proqinase Kinase profiling; assay type: biochemical; settings: read-out: % inhibition at 100nM
T16 construct: purchased DiscoverX

CSNK1A1 = molecular target: T17, CSNK1A1 (Homo sapiens, UniProt P48729); test: Proqinase Kinase profiling; assay type: biochemical; settings: read-out: % inhibition at 100nM
T17 construct: purchased DiscoverX

CDK2_cyclinA2 = molecular target: T18, CDK2_cyclinA2 (Homo sapiens, UniProt P24941); test: Proqinase Kinase profiling; assay type: biochemical; settings: read-out: % inhibition at 100nM
T18 construct: purchased DiscoverX

TEC = molecular target: T19, TEC (Homo sapiens, UniProt P42680); test: Proqinase Kinase profiling; assay type: biochemical; settings: read-out: % inhibition at 100nM
T19 construct: purchased DiscoverX

MAPKAPK2 = molecular target: T20, MAPKAPK2 (Homo sapiens, UniProt P49137); test: Proqinase Kinase profiling; assay type: biochemical; settings: read-out: % inhibition at 100nM
T20 construct: purchased DiscoverX

MAP3K10 = molecular target: T21, MAP3K10 (Homo sapiens, UniProt Q02779); test: Proqinase Kinase profiling; assay type: biochemical; settings: read-out: % inhibition at 100nM
T21 construct: purchased DiscoverX

MARK4 = molecular target: T22, MARK4 (Homo sapiens, UniProt Q96L34); test: Proqinase Kinase profiling; assay type: biochemical; settings: read-out: % inhibition at 100nM
T22 construct: purchased DiscoverX

FLT1 = molecular target: T23, FLT1 (Homo sapiens, UniProt P17948); test: Proqinase Kinase profiling; assay type: biochemical; settings: read-out: % inhibition at 100nM
T23 construct: purchased DiscoverX

SRC = molecular target: T24, SRC (Homo sapiens, UniProt P12931); test: Proqinase Kinase profiling; assay type: biochemical; settings: read-out: % inhibition at 100nM
T24 construct: purchased DiscoverX

EPHA2 = molecular target: T25, EPHA2 (Homo sapiens, UniProt P29317); test: Proqinase Kinase profiling; assay type: biochemical; settings: read-out: % inhibition at 100nM
T25 construct: purchased DiscoverX

PRKCE = molecular target: T26, PRKCE (Homo sapiens, UniProt Q02156); test: Proqinase Kinase profiling; assay type: biochemical; settings: read-out: % inhibition at 100nM
T26 construct: purchased DiscoverX

BMPR1A = molecular target: T27, BMPR1A (Homo sapiens, UniProt P36894); test: Proqinase Kinase profiling; assay type: biochemical; settings: read-out: % inhibition at 100nM
T27 construct: purchased DiscoverX

LTK = molecular target: T28, LTK (Homo sapiens, UniProt P29376); test: Proqinase Kinase profiling; assay type: biochemical; settings: read-out: % inhibition at 100nM
T28 construct: purchased DiscoverX

GSK3B = molecular target: T29, GSK3B (Homo sapiens, UniProt P49841); test: Proqinase Kinase profiling; assay type: biochemical; settings: read-out: % inhibition at 100nM
T29 construct: purchased DiscoverX

PHKG2 = molecular target: T30, PHKG2 (Homo sapiens, UniProt P15735); test: Proqinase Kinase profiling; assay type: biochemical; settings: read-out: % inhibition at 100nM
T30 construct: purchased DiscoverX

AURKC = molecular target: T31, AURKC (Homo sapiens, UniProt Q9UQB9); test: Proqinase Kinase profiling; assay type: biochemical; settings: read-out: % inhibition at 100nM
T31 construct: purchased DiscoverX

PDGFRA = molecular target: T32, PDGFRA (Homo sapiens, UniProt P16234); test: Proqinase Kinase profiling; assay type: biochemical; settings: read-out: % inhibition at 100nM
T32 construct: purchased DiscoverX

MET_Y1235D = molecular target: T33, MET_Y1235D (Homo sapiens, UniProt P08581, Y1235D); test: Proqinase Kinase profiling; assay type: biochemical; settings: read-out: % inhibition at 100nM
T33 construct: purchased DiscoverX

KIT_V560G = molecular target: T34, KIT_V560G (Homo sapiens, UniProt P10721, V560G); test: Proqinase Kinase profiling; assay type: biochemical; settings: read-out: % inhibition at 100nM
T34 construct: purchased DiscoverX

BMP-6-induced p-Smad1/5 = test: Western blot of p-Smad1/5 in KS483 cells; assay type: cell-based, mouse
Experimental: (§1) Compounds were added for 16 hours at 0.5μM before luciferase activity was measured.
Cells were seeded into 6-well plates and cultured till they reached confluence. Next, cells were stimulated as indicated and then washed with cold PBS. […] Electrophoresis was performed in 10% SDS/polyacrylamide gels. Separated proteins were transferred to nitrocellulose membranes (0.5 A at 100 V; in ice) for 1 hour. Blots were blocked in Tris-Buffered Saline solution containing 0.1% Tween 20 and 5% non-fat dry milk overnight at 4 °C, and immune-detection of specific proteins was carried out with primary antibodies (see above) followed by horseradish peroxidase-conjugated anti-mouse or anti-rabbit (GE Healthcare, Eindhoven, The Netherlands) secondary antibodies using an ECL system (Fisher Scientific, Landsmeer, The Netherlands).

caALK2 = molecular target: T35, caALK2 (Homo sapiens, UniProt Q04771, Q207D); test: BRE-LUC with constitutive active ALK2 in C2C12 cells; assay type: cell-based; settings: compound 0.5μM 16 hours
T35 construct: expressed in transfected cells; host or cells: C2C12 murine myofibroblast cells
Experimental: as §1
For luciferase reporter assays, cells were seeded in 24-well plates and transfected with DharmaFECT Duo (Fisher Scientific, Landsmeer, The Netherlands), following the recommendations of the manufacturer. 48 hours after transfection the cells were harvested and lysed. […] Each transfection mixture was equalized with empty vector when necessary and every experiment was performed in triplicate.

T30 sequence (P15735 whole entry): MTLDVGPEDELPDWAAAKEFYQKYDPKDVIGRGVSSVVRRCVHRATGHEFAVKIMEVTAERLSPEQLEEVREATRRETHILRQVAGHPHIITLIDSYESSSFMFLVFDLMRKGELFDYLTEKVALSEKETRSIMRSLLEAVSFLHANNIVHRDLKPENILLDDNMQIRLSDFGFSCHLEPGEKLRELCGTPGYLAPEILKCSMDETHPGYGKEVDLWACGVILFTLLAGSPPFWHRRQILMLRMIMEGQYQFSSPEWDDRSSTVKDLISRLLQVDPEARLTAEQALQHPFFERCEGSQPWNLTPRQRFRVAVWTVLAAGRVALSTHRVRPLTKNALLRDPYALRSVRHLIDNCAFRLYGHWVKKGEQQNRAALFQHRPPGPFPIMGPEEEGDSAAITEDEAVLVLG
T7 sequence (O75716 whole entry): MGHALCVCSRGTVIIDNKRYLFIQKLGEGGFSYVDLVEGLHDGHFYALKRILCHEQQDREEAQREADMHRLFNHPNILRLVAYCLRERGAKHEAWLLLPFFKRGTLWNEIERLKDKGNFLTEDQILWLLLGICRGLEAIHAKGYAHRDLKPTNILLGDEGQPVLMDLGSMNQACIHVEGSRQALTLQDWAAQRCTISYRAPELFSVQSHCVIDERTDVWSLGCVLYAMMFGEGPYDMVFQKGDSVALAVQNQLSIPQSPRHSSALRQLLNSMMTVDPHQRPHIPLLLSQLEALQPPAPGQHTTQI
T19 sequence (P42680 whole entry): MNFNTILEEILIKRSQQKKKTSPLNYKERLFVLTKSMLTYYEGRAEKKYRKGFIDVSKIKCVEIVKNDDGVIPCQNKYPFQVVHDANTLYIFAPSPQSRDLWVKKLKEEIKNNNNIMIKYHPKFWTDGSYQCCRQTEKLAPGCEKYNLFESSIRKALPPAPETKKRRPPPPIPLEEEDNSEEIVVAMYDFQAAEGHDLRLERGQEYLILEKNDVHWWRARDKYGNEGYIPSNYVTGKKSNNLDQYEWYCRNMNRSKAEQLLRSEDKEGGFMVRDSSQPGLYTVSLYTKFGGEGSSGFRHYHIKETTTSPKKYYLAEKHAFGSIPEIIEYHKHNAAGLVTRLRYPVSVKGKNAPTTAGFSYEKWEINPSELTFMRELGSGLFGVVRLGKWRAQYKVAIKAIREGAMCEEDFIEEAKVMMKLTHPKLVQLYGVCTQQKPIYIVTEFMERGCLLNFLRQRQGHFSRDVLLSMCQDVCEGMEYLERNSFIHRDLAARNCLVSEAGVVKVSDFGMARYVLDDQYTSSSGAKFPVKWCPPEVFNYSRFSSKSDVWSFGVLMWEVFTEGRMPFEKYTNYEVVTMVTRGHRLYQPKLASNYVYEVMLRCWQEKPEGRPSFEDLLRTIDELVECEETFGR
T4 sequence (P15056 whole entry): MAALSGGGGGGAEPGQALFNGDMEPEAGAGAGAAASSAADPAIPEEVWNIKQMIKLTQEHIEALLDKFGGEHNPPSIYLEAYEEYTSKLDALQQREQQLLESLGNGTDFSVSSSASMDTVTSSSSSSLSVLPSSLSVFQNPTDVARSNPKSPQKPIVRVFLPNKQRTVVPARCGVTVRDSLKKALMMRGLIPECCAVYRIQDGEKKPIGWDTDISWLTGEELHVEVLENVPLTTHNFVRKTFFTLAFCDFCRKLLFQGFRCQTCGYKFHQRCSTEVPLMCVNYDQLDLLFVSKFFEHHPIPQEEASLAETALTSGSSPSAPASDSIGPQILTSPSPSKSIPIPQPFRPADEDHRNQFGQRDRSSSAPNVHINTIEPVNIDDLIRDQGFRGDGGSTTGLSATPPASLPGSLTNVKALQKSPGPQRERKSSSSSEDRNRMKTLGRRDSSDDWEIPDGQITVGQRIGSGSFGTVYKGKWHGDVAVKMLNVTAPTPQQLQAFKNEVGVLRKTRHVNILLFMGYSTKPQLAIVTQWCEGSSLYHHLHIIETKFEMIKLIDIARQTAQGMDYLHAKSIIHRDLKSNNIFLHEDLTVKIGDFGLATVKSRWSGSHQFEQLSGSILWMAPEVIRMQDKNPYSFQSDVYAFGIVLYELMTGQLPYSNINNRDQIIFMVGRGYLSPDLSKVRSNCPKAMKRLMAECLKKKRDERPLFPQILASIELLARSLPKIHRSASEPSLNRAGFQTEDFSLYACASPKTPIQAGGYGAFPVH
T6 sequence (P36896 24-505): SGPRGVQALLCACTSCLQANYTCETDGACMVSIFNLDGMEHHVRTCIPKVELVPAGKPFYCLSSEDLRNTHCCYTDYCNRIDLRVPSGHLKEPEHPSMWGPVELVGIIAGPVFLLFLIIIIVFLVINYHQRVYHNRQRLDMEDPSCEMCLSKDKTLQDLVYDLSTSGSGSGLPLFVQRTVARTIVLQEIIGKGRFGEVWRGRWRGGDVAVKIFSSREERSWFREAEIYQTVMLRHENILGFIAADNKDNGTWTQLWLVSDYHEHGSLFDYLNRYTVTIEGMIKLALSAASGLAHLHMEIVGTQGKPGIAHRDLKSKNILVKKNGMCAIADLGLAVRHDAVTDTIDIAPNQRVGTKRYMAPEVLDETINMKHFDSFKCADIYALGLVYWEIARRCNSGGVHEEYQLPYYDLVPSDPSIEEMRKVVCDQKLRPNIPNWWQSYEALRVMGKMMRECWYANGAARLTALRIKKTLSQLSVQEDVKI
T22 sequence (Q96L34 whole entry): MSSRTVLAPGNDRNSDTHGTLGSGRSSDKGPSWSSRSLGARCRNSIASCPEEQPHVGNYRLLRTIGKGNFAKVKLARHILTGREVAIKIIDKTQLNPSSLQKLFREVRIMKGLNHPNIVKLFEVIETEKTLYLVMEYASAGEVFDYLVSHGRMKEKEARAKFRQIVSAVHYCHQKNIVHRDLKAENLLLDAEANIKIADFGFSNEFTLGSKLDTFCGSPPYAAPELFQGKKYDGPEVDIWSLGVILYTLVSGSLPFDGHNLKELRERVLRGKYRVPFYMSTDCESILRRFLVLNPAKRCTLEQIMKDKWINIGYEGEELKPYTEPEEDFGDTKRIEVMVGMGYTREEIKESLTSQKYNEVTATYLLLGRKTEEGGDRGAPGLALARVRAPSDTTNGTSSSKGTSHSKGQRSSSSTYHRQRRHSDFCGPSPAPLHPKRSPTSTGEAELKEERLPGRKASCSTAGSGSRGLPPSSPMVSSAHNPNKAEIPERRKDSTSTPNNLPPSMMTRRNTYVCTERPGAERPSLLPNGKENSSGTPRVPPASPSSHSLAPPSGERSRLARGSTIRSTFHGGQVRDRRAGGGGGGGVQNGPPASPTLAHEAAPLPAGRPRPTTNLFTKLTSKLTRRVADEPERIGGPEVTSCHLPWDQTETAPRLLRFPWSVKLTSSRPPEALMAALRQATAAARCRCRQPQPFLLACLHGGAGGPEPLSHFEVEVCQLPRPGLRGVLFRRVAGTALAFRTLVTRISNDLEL
T10 sequence (Q8N568 whole entry): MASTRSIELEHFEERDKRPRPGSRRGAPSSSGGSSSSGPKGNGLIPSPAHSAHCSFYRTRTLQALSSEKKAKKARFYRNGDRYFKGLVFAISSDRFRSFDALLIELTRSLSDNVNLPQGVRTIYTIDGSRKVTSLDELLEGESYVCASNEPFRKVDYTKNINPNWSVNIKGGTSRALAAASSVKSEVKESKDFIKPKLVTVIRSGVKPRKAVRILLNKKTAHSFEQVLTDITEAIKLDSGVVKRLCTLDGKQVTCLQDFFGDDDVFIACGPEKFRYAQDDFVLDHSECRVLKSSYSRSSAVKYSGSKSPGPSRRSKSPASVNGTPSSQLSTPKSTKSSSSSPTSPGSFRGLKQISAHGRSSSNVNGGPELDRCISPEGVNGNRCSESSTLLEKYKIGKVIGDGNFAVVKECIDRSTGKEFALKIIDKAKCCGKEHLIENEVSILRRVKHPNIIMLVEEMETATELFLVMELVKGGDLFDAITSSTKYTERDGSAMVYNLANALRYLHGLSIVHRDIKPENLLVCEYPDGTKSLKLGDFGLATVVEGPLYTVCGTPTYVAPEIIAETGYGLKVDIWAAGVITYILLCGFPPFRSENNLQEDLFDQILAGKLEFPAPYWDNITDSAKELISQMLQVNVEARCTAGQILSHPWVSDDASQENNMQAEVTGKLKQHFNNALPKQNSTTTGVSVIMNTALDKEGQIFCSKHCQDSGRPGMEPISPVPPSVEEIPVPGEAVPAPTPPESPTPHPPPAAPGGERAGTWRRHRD
T5 sequence (P27037 20-513): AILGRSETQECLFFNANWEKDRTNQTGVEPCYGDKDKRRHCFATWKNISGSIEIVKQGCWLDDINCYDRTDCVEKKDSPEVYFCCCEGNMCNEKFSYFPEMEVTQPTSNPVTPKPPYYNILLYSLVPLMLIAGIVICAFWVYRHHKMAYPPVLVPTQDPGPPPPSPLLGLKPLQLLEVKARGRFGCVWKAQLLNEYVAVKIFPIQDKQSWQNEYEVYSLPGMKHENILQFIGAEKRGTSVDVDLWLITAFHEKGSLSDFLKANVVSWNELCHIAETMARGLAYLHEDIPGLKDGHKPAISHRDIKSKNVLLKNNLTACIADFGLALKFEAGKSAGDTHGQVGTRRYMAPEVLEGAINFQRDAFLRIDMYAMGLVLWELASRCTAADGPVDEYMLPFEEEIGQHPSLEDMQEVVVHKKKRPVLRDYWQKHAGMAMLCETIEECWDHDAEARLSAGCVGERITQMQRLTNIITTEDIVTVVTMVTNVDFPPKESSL
T20 sequence (P49137 whole entry): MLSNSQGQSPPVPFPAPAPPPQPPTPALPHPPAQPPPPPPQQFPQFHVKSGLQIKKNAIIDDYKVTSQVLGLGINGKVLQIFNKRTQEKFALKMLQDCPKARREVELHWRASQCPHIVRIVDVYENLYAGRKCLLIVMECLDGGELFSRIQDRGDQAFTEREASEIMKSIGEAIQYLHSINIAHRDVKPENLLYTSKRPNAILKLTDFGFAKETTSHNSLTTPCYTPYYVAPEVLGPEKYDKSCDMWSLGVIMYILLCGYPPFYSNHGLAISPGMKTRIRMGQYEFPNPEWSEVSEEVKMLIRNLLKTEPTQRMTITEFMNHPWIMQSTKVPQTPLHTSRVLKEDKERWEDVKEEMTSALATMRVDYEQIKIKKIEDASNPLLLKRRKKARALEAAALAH

| SMILES | inhibition at 0.1 µM (RET) | inhibition at 0.1 µM (TXK) | inhibition at 0.1 µM (CSNK1E) | inhibition at 0.1 µM (BRAF) | inhibition at 0.1 µM (ACVR2A) | inhibition at 0.1 µM (ACVR1B) | inhibition at 0.1 µM (STK16) | inhibition at 0.1 µM (PAK4) | inhibition at 0.1 µM (ABL1_Y253F) | inhibition at 0.1 µM (DCLK2) | inhibition at 0.1 µM (ZAK) | inhibition at 0.1 µM (INSRR) | inhibition at 0.1 µM (CSNK2A2) | inhibition at 0.1 µM (CLK4) | inhibition at 0.1 µM (WEE1) | inhibition at 0.1 µM (MAPK3) | inhibition at 0.1 µM (CSNK1A1) | inhibition at 0.1 µM (CDK2_cyclinA2) | inhibition at 0.1 µM (TEC) | inhibition at 0.1 µM (MAPKAPK2) | also measured |
| --- | --- | --- | --- | --- | --- | --- | --- | --- | --- | --- | --- | --- | --- | --- | --- | --- | --- | --- | --- | --- | --- |
| Clc1cc2cc(c1)-c1cnn3ccc(nc13)NCCOCCO2 [OD36] | 27% | 37% | 6% | 20% | 15% | 22% | 12% | -3% | 3% | 11% | 70% | 0% | 8% | 22% | 15% | 12% | -6% | 4% | 6% | -9% | inhibition at 0.1 µM (MAP3K10): 13%; inhibition at 0.1 µM (MARK4): 13%; inhibition at 0.1 µM (FLT1): 20%; inhibition at 0.1 µM (SRC): 15%; inhibition at 0.1 µM (EPHA2): 7%; inhibition at 0.1 µM (PRKCE): -1%; inhibition at 0.1 µM (BMPR1A): 9%; inhibition at 0.1 µM (LTK): 6%; inhibition at 0.1 µM (GSK3B): 11%; inhibition at 0.1 µM (PHKG2): 1%; inhibition at 0.1 µM (AURKC): 13%; inhibition at 0.1 µM (PDGFRA): 29%; inhibition at 0.1 µM (MET_Y1235D): -5%; inhibition at 0.1 µM (KIT_V560G): 19%; Inhibition of BMP-6-induced p-Smad1/5 (BMP-6-induced p-Smad1/5): efficiently inhibited; Inhibition of caALK2-driven BRE-LUC activity (caALK2): exclusively inhibited ALK2 |
| Cc1cc2cc(c1)-c1cnn3ccc(nc13)NCCNC(=O)CCN(C)C2 [OD52] | 28% | 25% | 20% | 16% | 14% | 13% | 9% | 7% | 7% | 7% | 6% | 6% | 5% | 4% | 3% | 1% | 1% | 0% | 0% | -1% | inhibition at 0.1 µM (MAP3K10): -3%; inhibition at 0.1 µM (MARK4): -4%; inhibition at 0.1 µM (FLT1): -4%; inhibition at 0.1 µM (SRC): -6%; inhibition at 0.1 µM (EPHA2): -6%; inhibition at 0.1 µM (PRKCE): -7%; inhibition at 0.1 µM (BMPR1A): -7%; inhibition at 0.1 µM (LTK): -8%; inhibition at 0.1 µM (GSK3B): -9%; inhibition at 0.1 µM (PHKG2): -10%; inhibition at 0.1 µM (AURKC): -11%; inhibition at 0.1 µM (PDGFRA): -12%; inhibition at 0.1 µM (MET_Y1235D): -15%; inhibition at 0.1 µM (KIT_V560G): -21%; Inhibition of BMP-6-induced p-Smad1/5 (BMP-6-induced p-Smad1/5): efficiently inhibited; Inhibition of caALK2-driven BRE-LUC activity (caALK2): exclusively inhibited ALK2 |
